In patent publication US11117890B2, “Substituted isoindole allosteric EGFR inhibitors” (Hoffmann-La Roche Inc., priority 2017, dated 2021) one finds IC50 data, which are given here for 26 molecules.

Each structure is given as a SMILES string. Structures can show the parent of a compound that is named as a salt.

For orientation: IC50 means the point on the concentration scale where inhibition reaches its midpoint.

The target in this experiment is T1, Phospho-EGFR in H1975 cell line (Homo sapiens, UniProt P00533, L858R/T790M).
T1 construct: H1975 cell line was obtained from American Type Culture Collection; host or cells: H1975
T1 sequence (P00533 25-1210 T790M/L858R): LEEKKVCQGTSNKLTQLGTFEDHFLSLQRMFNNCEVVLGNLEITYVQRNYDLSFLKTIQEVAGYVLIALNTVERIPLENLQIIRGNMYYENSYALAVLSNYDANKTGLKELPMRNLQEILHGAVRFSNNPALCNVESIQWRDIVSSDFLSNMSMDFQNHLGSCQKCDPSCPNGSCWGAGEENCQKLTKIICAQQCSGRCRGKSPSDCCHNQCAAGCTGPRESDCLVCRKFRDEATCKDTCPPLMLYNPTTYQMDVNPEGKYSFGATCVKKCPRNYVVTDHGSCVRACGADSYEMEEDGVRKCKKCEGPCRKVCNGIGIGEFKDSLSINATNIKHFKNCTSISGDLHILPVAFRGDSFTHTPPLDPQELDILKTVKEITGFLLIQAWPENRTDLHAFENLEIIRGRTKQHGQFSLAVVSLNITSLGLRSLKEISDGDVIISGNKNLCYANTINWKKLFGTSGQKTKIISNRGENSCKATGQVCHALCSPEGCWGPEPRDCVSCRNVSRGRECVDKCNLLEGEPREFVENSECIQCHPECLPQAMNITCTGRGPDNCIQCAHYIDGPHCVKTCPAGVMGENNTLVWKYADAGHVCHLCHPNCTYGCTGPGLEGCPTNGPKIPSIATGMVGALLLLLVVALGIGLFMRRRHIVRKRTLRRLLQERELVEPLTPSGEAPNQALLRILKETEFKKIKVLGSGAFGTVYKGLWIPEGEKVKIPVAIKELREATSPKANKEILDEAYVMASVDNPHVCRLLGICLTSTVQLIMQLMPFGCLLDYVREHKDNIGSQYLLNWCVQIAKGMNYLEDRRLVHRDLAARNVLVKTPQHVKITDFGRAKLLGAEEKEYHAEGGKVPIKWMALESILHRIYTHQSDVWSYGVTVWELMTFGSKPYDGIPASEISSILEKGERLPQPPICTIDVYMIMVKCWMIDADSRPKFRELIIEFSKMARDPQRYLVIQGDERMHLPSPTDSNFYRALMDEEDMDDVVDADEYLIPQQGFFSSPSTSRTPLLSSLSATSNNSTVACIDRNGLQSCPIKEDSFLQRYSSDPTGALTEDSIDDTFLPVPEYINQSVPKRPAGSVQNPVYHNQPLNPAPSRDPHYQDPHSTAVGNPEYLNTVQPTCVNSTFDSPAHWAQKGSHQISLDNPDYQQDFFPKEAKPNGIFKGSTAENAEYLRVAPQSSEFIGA
As to the kind of experiment: HTRF Phospo EGFR Assay (Cellular). The class given is cell-based. The conditions noted are these: H1975 cells; 6 hours compound incubation in starving medium; HTRF anti-Phospho-EGFR readout. The procedure: HTRF Phospo EGFR Assay (Cellular)
H1975 cell line was obtained from American Type Culture Collection (Manassas, Va., USA). Cells were maintained at 37° C., 5% CO2 in complete Media RPMI 1640 without phenol red containing 0.3 mg/ml glutamine, 100 IU/ml penicillin, and […] (Gibco) supplemented with 10% fetal bovine serum (FBS) (Gibco). Compounds were diluted into starving medium RPMI 1640 Media without phenol red containing 0.3 mg/ml glutamine, 100 IU/ml penicillin, and […] (Gibco).
Cells were cultured overnight in a 384-well white plate (8000 cells/well) using 8 μl of complete medium/well. Cells were washed two times with 20 μl of starving medium. Media was removed by tapping plates on tissue and subsequently 8 μl of fresh starving medium/well was added. Then 4 μl/well of the 3×compound solution, containing a half-log dilution series of the compound or DMSO in starving medium, were added to the cells. After 6 hours at 37° C., 5% CO2 cells were lysed by adding to the compound mix 4 μl/well of the supplemented lysis buffer, followed by incubation for 30 min at room temperature with shaking. Lysates were stored at −20° C. overnight. The following day plates were thawed and 2 μl of anti-Phospho-EGFR Cryptate and 2 μl of anti-Phospho-EGFR-d2 antibody solutions prepared in the detection buffer were added. The plates were then incubated for at least 4 h at room temperature before reading the fluorescence emission at 620 and 665 nm using PHERAstar FX plate reader (BMG Labtech).
(TR-FRET usually uses a lanthanide donor and a delayed reading to cut background.)
`Nc1ncc(C#Cc2ccc3c(c2)C(=O)N(C(C(=O)Nc2nccs2)c2cc(F)ccc2O)C3)cn1` (racemic) [Example 18, (2RS)-2-[6-[2-(2-Aminopyrimidin-5-yl)ethynyl]-1-oxo-isoindolin-2-yl]-2-(5-fluoro-2-hydroxy-phenyl)-N-thiazol-2-yl-acetamide] came in with an IC50 of 2 nM. For `CCN1CCN(Cc2ccc(C#Cc3ccc4c(c3)C(=O)N(C(C(=O)Nc3nccs3)c3cc(F)ccc3O)C4)cc2)CC1` (racemic) [Example 31, (2RS)-2-[6-[2-[4-1(4-Ethylpiperazin-1-yl)methyl]phenyl]ethynyl1-1-oxo-isoindolin-2-yl]-2-(5-fluoro-2-hydroxy-phenyl)-N-thiazol-2-yl-acetamide] the value was 7 nM; for `Nc1ccc(C#Cc2ccc3c(c2)C(=O)N(C(C(=O)Nc2nccs2)c2ccccc2)C3)cn1` (racemic) [Example 3, (2RS)-2-[6-[2-(6-Amino-3-pyridyl)ethynyl]-1-oxo-isoindolin-2-yl]-2-phenyl-N-thiazol-2-yl-acetamide], 32 nM. `O=C(Nc1nccs1)C(c1ccccc1)N1Cc2ccc(C#Cc3ccccc3)cc2C1=O` (racemic) [Example 1, (2RS)-2-[1-Oxo-6-(2-phenylethynyl)isoindolin-2-yl]-2-phenyl-N-thiazol-2-yl-acetamide] had a 50% inhibitory concentration (IC50) of 45 nM.

Molecule `CC(=O)N1CCN(Cc2ccc(C#Cc3ccc4c(c3)C(=O)N(C(C(=O)Nc3nccs3)c3ccccc3)C4)cc2)CC1` (racemic) [Example 12, (2RS)-2-[6-[2-[4-[(4-acetylpiperazin-1-yl)methyl]phenyl]ethynyl]-1-oxo-isoindolin-2-yl]-2-phenyl-N-thiazol-2-1-acetamide] yielded a half-maximal inhibitory concentration (IC50) of 14 nM. Consider `O=C(Nc1nccs1)C(c1ccccc1)N1Cc2ccc(C#Cc3ccc(CN4CCOCC4)cc3)cc2C1=O` (racemic) [Example 11, (2RS)-2-[6-[2-[4-(Morpholinomethyl)phenyl]ethynyl]-1-oxo-isoindolin-2-yl]-2-phenyl-N-thiazol-2-yl-acetamide], for which the half-inhibitory concentration (IC50) was 61 nM. Then `Nc1ccc(C#Cc2ccc3c(c2)C(=O)N(C(C(=O)Nc2nccs2)c2cc(F)ccc2F)C3)cn1` (racemic) [Example 5, (2RS)-2-[6-[2-(6-Amino-3-pyridyl)ethynyl]-1-oxo-isoindolin-2-yl]-2-(2,5-difluorophenyl)-N-thiazol-2-yl-acetamide], with 7 nM; and `O=C(Nc1nccs1)C(c1cc(F)ccc1O)N1Cc2ccc(C#Cc3ccccc3)cc2C1=O` (racemic) [Example 17, (2RS)-2-(5-Fluoro-2-hydroxy-phenyl)-2-[1-oxo-6-(2-phenylethynyl)isoindolin-2-yl]-N-thiazol-2-yl-acetamide], with 6 nM; and `O=C(Nc1nccs1)C(c1cc(F)ccc1O)N1Cc2ccc(C#Cc3cccnc3)c(F)c2C1=O` (racemic) [Example 26, (2RS)-2-(5-Fluoro-2-hydroxy-phenyl)-2-[7-fluoro-1-oxo-6-[2-(3-pyridyl)ethynyl]isoindolin-2-yl]-N-thiazol-2-yl-acetamide], with 2 nM. For `Cc1c(C#Cc2ccc(N)nc2)ccc2c1C(=O)N(C(C(=O)Nc1ccccn1)c1cc(F)ccc1O)C2` (racemic) [Example 22, (2RS)-2-[6-[2-(6-Amino-3-pyridyl)ethynyl]-7-methyl1-oxo-isoindolin-2-yl]-2-(5-fluoro-2-hydroxy-phenyl)-N-(2-pyridyl)acetamide] the value was 3 nM; for `Nc1ccc(C#Cc2ccc3c(c2)C(=O)N(C(C(=O)Nc2nccs2)c2ncccc2O)C3)cn1` (racemic) [Example 25, (2RS)-2-[6-[2-(6-Amino-3-pyridyl)ethynyl]-1-oxo-isoindolin-2-yl]-2-(3-hydroxy-2-pyridyl)-N-thiazol-2-yl-acetamide trifluoroacetate], 2 nM; for `Nc1ccc(C#Cc2ccc3c(c2)C(=O)N(C(C(=O)Nc2nccs2)c2ccccc2O)C3)cn1` (racemic) [Example 24, (2RS)-2-[6-[2-(6-Amino-3-pyridyl)ethynyl]-1-oxo-isoindolin-2-yl]-2-(2-hydroxyphenyl)-N-thiazol-2-yl-acetamide], 4 nM. Then `O=C(Nc1nccs1)C(c1cc(F)ccc1O)N1Cc2ccc(C#Cc3ccc(CN4CCNCC4)cc3)cc2C1=O` (racemic) [Example 29, (2RS)-2-(5-Fluoro-2-hydroxy-phenyl)-2-[1-oxo-6-[2-[4-(piperazin-1-ylmethyl)phenyl]ethynyl]isoindolin-2-yl]-N-thiazol-2-yl-acetamide], with 8 nM. In the case of `NCc1ccc(C#Cc2ccc3c(c2)C(=O)N(C(C(=O)Nc2nccs2)c2ccccc2)C3)cc1` (racemic) [Example 6, (2RS)-2-[6-[2-[4-(Aminomethyl)phenyl]ethynyl]-1-oxo-isoindolin-2-yl]-2-phenyl-N-thiazol-2-yl-acetamide], the IC50 was found to be 35 nM.

`CC(=O)Nc1ccc(C#Cc2ccc3c(c2)C(=O)N(C(C(=O)Nc2nccs2)c2ccccc2)C3)cn1` (racemic) [Example 7, (2RS)-2-[6-[2-(6-Acetamido-3-pyridyl)ethynyl]-1-oxo-isoindolin-2-yl]-2-phenyl-N-thiazol-2-yl-acetamide] yielded a concentration for half-maximal inhibition (IC50) of 10 nM. Then `Nc1ccc(C#Cc2ccc3c(c2)C(=O)N(C(C(=O)Nc2nccs2)c2n[nH]c4c2CCC4)C3)cn1` (racemic) [Example 8, (2RS)-2-[6-[2-(6-Amino-3-pyridyl)ethynyl]-1-oxo-isoindolin-2-yl]-2-(1,4,5,6-tetrahydrocyclopenta[c]pyrazol-3-yl)-N-thiazol-2-yl-acetamide], with 1.9 nM. Consider `CNC(=O)c1ccc(C#Cc2ccc3c(c2)C(=O)N(C(C(=O)Nc2nccs2)c2ccccc2)C3)cn1` (racemic) [Example 9, N-Methyl-5-[2-[3-oxo-2-[(1RS)-2-oxo-1-phenyl-2-(thiazol-2-ylamino)ethyl]isoindolin-5-yl]ethynyl]pyridine-2-carboxamide], for which the half-inhibitory concentration (IC50) is 16 nM. As for `O=C(Nc1nccs1)C(c1cc(F)ccc1O)N1Cc2ccc(C#Cc3ccc(CN4CCOCC4)cc3)cc2C1=O` (racemic) [Example 27, (2RS)-2-(5-Fluoro-2-hydroxy-phenyl)-2-[6-[2-[4-(morpholinomethyl)phenyl]ethynyl]-1-oxo-isoindolin-2-yl]-N-thiazol-2-yl-acetamide], the IC50 was 5 nM. In turn, `O=C(Nc1nccs1)C(c1cc(F)ccc1O)N1Cc2ccc(C#Cc3ccnc(Cl)c3)cc2C1=O` (racemic) [Example 19, (2RS)-2-[6-[2-(2-Chloro-4-pyridyl)ethynyl]-1-oxo-isoindolin-2-yl]-2-(5-fluoro-2-hydroxy-phenyl)-N-thiazol-2-yl-acetamide] registered a half-maximal inhibitory concentration (IC50) of 3 nM.

For the molecule `CCN1CCN(Cc2ccc(C#Cc3ccc4c(c3)C(=O)N(C(C(=O)Nc3nccs3)c3ccccc3)C4)cc2)CC1` (racemic) [Example 13, (2RS)-2-[6-[2-[4-[(4-Ethylpiperazin-1-yl)methyl]phenyl]ethynyl]-1-oxo-isoindolin-2-yl]-2-phenyl-N-thiazol-2-yl-acetamide], it took 69 nM to reach half-maximal inhibition (IC50).

Molecule `Nc1ccc(C#Cc2ccc3c(c2)C(=O)N(C(C(=O)Nc2nccs2)c2cccc(F)c2)C3)cn1` (racemic) [Example 4, (2RS)-2-[6-[2-(6-Amino-3-pyridyl)ethynyl]-1-oxo-isoindolin-2-yl]-2-(3-fluorophenyl)-N-thiazol-2-yl-acetamide] returned an IC50 of 9 nM. Take `Nc1ccc(C#Cc2ccc3c(c2)C(=O)N(C(C(=O)Nc2nccs2)c2cc(F)ccc2O)C3)cn1` (racemic) [Example 15, (2RS)-2-[6-[2-(6-Amino-3-pyridyl)ethynyl]-1-oxo-isoindolin-2-yl]-2-(5-fluoro-2-hydroxy-phenyl)-N-thiazol-2-yl-acetamide]: the IC50 is 1 nM. For `O=C(Nc1nccs1)C(c1ccccc1)N1Cc2ccc(C#Cc3ccc(C(=O)N4CCOCC4)nc3)cc2C1=O` (racemic) [Example 14, (2RS)-2-[6-[2-[6-(Morpholine-4-carbonyl)-3-pyridyl]ethynyl]-1-oxo-isoindolin-2-yl]-2-phenyl-N-thiazol-2-yl-acetamide], inhibition was half-maximal at 51 nM (IC50). Then `Nc1ccc(C#Cc2ccc3c(c2)C(=O)N(C(C(=O)Nc2nccs2)c2cc(Cl)ccc2O)C3)cn1` (racemic) [Example 23, (2RS)-2-[6-[2-(6-Amino-3-pyridyl)ethynyl]-1-oxo-isoindolin-2-yl]-2-(5-chloro-2-hydroxy-phenyl)-N-thiazol-2-yl-acetamide], with 4 nM. Then `CN1CCN(Cc2ccc(C#Cc3ccc4c(c3)C(=O)N(C(C(=O)Nc3nccs3)c3cc(F)ccc3O)C4)cc2)CC1` (racemic) [Example 30, (2RS)-2-(5-Fluoro-2-hydroxy-phenyl)-2-[6-[2-[4-1(4-methylpiperazin-1-yl)methyl]phenyl]ethynyl]-1-oxo-isoindolin-2-yll-N-thiazol-2-yl-acetamide], with 7 nM. Consider `O=C(Nc1nccs1)C(c1cc(F)ccc1O)N1Cc2ccc(C#Cc3ccc(CN4CCC(O)CC4)cc3)cc2C1=O` (racemic) [Example 28, (2RS)-2-(5-Fluoro-2-hydroxy-phenyl)-2-[6-[2-[4-1(4-hydroxy-1-piperidyl)methyl]phenyllethynyl]-1-oxo-isoindolin-2-yl]-N-thiazol-2-yl-acetamide], for which it took 7 nM to reach half-maximal inhibition (IC50).
